Tests used:
[1] = at 25° C.; cited from earlier work
HEK-293 cells = assay: In vitro cytotoxicity, MTT assay; settings: 1% Triton-X 100, 80 μM H2O2, 48 h
Method: The amount of lactic acid release was quantified by using lactate assay kit (BioVision Inc., Milpitas, Calif.) following manufacturer's specifications. […] Forty microliters of MTT reagent (5 mg/ml in phosphate buffered saline) was added to each well. After 2 h of incubation at 37° C., 200 μl of dimethylsulfoxide (DMSO) was added to each well to dissolve the formazan crystals. After 5 minutes, the optical absorbance was measured at 570 nm and converted to percent viability relative to control (untreated) cells. All samples were tested in quadruplicate.
One hundred microliters of diluted nanoparticles (0.1, 0.2, 0.3, 0.4, 0.5, 0.6, and 1 mg/ml) stock solution was added to each well and incubated with the cells for 48 h, and then replaced with growth medium (160 μl). MTT reagent (40 μl) was added to each well to form formazan. After 2 h of incubation at 37° C., 200 μl of dimethylsulfoxide (DMSO) was added to each well to dissolve the formazan crystals. After 5 m optical absorbance was measured at 570 nm and converted to percent viability relative to control (untreated) cells (n=4).

Xenopus laevis frogs = assay: Effective dose in in vitro studies using frogs
[2] = Solubility of organic phase solvents in water or poly(ortho ester) polymer

Molecule	Solubility in water [1]	Cell viability of positive controls (HEK-293 cells)	Solubility of POE (poly(ortho ester) polymer) in the organic phase solvent [2]	also measured
CCOC(C)=O [Ethyl acetate]	(8.7% (w/w)	–	–	–
OO [H2O2]	–	8%	–	–
Triton-X 100	–	5%	–	–
asialo, galactosylated, triantennary (NA3) oligosaccharides	–	–	–	Effective dose in vitro (Xenopus laevis frogs): 1 nM
CC(C)=O [Acetone]	Very soluble	–	Immiscible	–
ClCCl [Dichloromethane]	Immiscible (1.6% (w/w)	–	Excellent solvent	–

— patent publication US9149426B2, “Nanoparticle composition and methods to make and use the same” (priority 2012, dated 2015)
